Patent publication US10076519B2 (CYTOKINETICS, INC., priority 2010, dated 2018)

System: rabbit skeletal myofibrils (fast skeletal myofibrils)
Assay: Activation of fast skeletal myofibrils (PUMA assay, PK/LDH-coupled ATPase at pCa25)
Format: biochemical
Summary of the method: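 ATPase activity of Triton-washed rabbit skeletal myofibrils, roughly 90% fast fibres, tracked by NADH loss at 340 nm through a PK/LDH-coupled ADP-regenerating system. Calcium set to 25% of maximal activity (pCa25), in PIPES 12 mM pH 6.8 with 2 mM MgCl2 and 1 mM DTT; AC1.4 reported.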

[1] = AC1.4 determined according to the procedure of Example 39, reported as class symbols
[2] = median AC1.4 class, procedure of Example 39

Compound	Mean AC1.4 [1]	further results
CC(C)(CNc1ccc(-c2cnc(N)nc2)nn1)c1ccc(F)cc1 [[6-(2-aminopyrimidin-5-yl)pyridazin-3-yl][2-(4-fluorophenyl)-2-methylpropyl]amine]	B (B=1-10 uM)	
Nc1ncc(-c2ccc(NC3(c4ccc(F)cc4)CCC3)nn2)cn1 [[6-(2-aminopyrimidin-5-yl)pyridazin-3-yl][(4-fluorophenyl)cyclobutyl]amine]		Mean AC1.4 [2]: B (B=1-10 uM)
Nc1ncc(-c2ccc(NC[C@]3(c4ncccc4F)C[C@H](F)C3)nn2)cn1 [[6-(2-aminopyrimidin-5-yl)pyridazin-3-yl]{[3-fluoro-1-(3-fluoro(2-pyridyl))cyclobutyl]methyl}amine]		Mean AC1.4 (median AC1.4 reported as class, procedure of Example 39): B (B=1-10 uM)
Nc1ncc(-c2ccc(NCC3(c4ncccc4F)CCC3)nn2)cn1 [[6-(2-aminopyrimidin-5-yl)pyridazin-3-yl]{[(3-fluoro(2-pyridyl))cyclobutyl]methyl}amine]		Mean AC1.4 [2]: B (B=1-10 uM)
CC(C)(CNc1ccc(-c2ccccc2Cl)nn1)c1ccc(F)cc1 [[6-(2-chlorophenyl)pyridazin-3-yl][2-(4-fluorophenyl)-2-methylpropyl]amine]	A (A=<1 uM)	
CC(C)(CNc1ccc(-c2cccc(-c3nn[nH]n3)c2)nn1)c1ncccc1F [[6-(3-(2H-1,2,3,4-tetraazol-5-yl)phenyl)pyridazin-3-yl][2-(3-fluoro(2-pyridyl))-2-methylpropyl]amine]		Mean AC1.4 [2]: B (B=1-10 uM)
Fc1cccnc1[C@]1(CNc2ccc(-c3cccc(-c4nn[nH]n4)c3)nn2)C[C@@H](F)C1 [[6-(3-(2H-1,2,3,4-tetraazol-5-yl)phenyl)pyridazin-3-yl]{[3-fluoro-1-(3-fluoro(2-pyridyl))cyclobutyl]methyl}amine]		Mean AC1.4 [2]: A (A=<1 uM)
Fc1cccnc1C1(CNc2ccc(-c3cccc(-c4nn[nH]n4)c3)nn2)CCC1 [[6-(3-(2H-1,2,3,4-tetraazol-5-yl)phenyl)pyridazin-3-yl]{[(3-fluoro(2-pyridyl))cyclobutyl]methyl}amine]		Mean AC1.4 [2]: A (A=<1 uM)
CC(C)(CNc1ccc(-c2ccc3[nH]nc(N)c3c2)nn1)c1ncco1 [[6-(3-amino(1H-indazol-5-yl))pyridazin-3-yl](2-methyl-2-(1,3-oxazol-2-yl)propyl)amine]	D (D=>20 uM)	
CC(CNc1ccc(-c2ccc3[nH]nc(N)c3c2)nn1)N1CCCCC1 (stereo not shown) [[6-(3-amino(1H-indazol-5-yl))pyridazin-3-yl](2-piperidylpropyl)amine]	D (D=>20 uM)	
Nc1n[nH]c2ccc(-c3ccc(NCC(F)(F)c4ccc(F)cc4)nn3)cc12 [[6-(3-amino(1H-indazol-5-yl))pyridazin-3-yl][2,2-difluoro-2-(4-fluorophenyl)ethyl]amine]	B (B=1-10 uM)	
CC(C)(CNc1ccc(-c2ccc3[nH]nc(N)c3c2)nn1)c1ncc(F)cc1F [[6-(3-amino(1H-indazol-5-yl))pyridazin-3-yl][2-(3,5-difluoro(2-pyridyl))-2-methylpropyl]amine]	A (A=<1 uM)	
CC(C)(CNc1ccc(-c2ccc3[nH]nc(N)c3c2)nn1)c1ncccc1F [[6-(3-amino(1H-indazol-5-yl))pyridazin-3-yl][2-(3-fluoro(2-pyridyl))-2-methylpropyl]amine]	B (B=1-10 uM)	
COc1cccc(C(C)(C)CNc2ccc(-c3ccc4[nH]nc(N)c4c3)nn2)c1 [[6-(3-amino(1H-indazol-5-yl))pyridazin-3-yl][2-(3-methoxyphenyl)-2-methylpropyl]amine]	A (A=<1 uM)	
CC(C)(CNc1ccc(-c2ccc3[nH]nc(N)c3c2)nn1)c1ccc(F)cc1 [[6-(3-amino(1H-indazol-5-yl))pyridazin-3-yl][2-(4-fluorophenyl)-2-methylpropyl]amine]	A (A=<1 uM)	
CC(C)(CNc1ccc(-c2ccc3[nH]nc(N)c3c2)nn1)c1ccc(F)cn1 [[6-(3-amino(1H-indazol-5-yl))pyridazin-3-yl][2-(5-fluoro(2-pyridyl))-2-methylpropyl]amine]	B (B=1-10 uM)	
Cc1ccccc1C(C)(C)CNc1ccc(-c2ccc3[nH]nc(N)c3c2)nn1 [[6-(3-amino(1H-indazol-5-yl))pyridazin-3-yl][2-methyl-2-(2-methylphenyl)propyl]amine]	A (A=<1 uM)	
Cc1ccc(C(C)(C)CNc2ccc(-c3ccc4[nH]nc(N)c4c3)nn2)cc1 [[6-(3-amino(1H-indazol-5-yl))pyridazin-3-yl][2-methyl-2-(4-methylphenyl)propyl]amine]	A (A=<1 uM)	
Nc1n[nH]c2ccc(-c3ccc(NC4(c5ncccc5F)CCC4)nn3)cc12 [[6-(3-amino(1H-indazol-5-yl))pyridazin-3-yl][(3-fluoro(2-pyridyl))cyclobutyl]amine]		Mean AC1.4 [2]: B (B=1-10 uM)
COCc1ccccc1C(C)(C)CNc1ccc(-c2ccc3[nH]nc(N)c3c2)nn1 [[6-(3-amino(1H-indazol-5-yl))pyridazin-3-yl]{2-[2-(methoxymethyl)phenyl]-2-methylpropyl}amine]	C (C=10-20 uM)	

Compound	Mean AC1.4 [1]	further results
CC(C)(CNc1ccc(-c2ccc3[nH]nc(N)c3c2)nn1)c1cccc(CN)c1 [[6-(3-amino(1H-indazol-5-yl))pyridazin-3-yl]{2-[3-(aminomethyl)phenyl]-2-methylpropyl}amine]	C (C=10-20 uM)	
CC(C)(CNc1ccc(-c2ccc3[nH]nc(N)c3c2)nn1)c1ccc(CN)cc1 [[6-(3-amino(1H-indazol-5-yl))pyridazin-3-yl]{2-[4-(aminomethyl)phenyl]-2-methylpropyl}amine]	D (D=>20 uM)	
Nc1n[nH]c2ccc(-c3ccc(NC[C@]4(c5ncccc5F)C[C@H](F)C4)nn3)cc12 [[6-(3-amino(1H-indazol-5-yl))pyridazin-3-yl]{[3-fluoro-1-(3-fluoro(2-pyridyl))cyclobutyl]methyl}amine]		Mean AC1.4 [2]: A (A=<1 uM)
Nc1n[nH]c2ccc(-c3ccc(NCC4(c5ccccc5F)CCC4)nn3)cc12 [[6-(3-amino(1H-indazol-5-yl))pyridazin-3-yl]{[(2-fluorophenyl)cyclobutyl]meth-yl}amine]	A (A=<1 uM)	
Nc1n[nH]c2ccc(-c3ccc(NCC4(c5ccccc5F)CCCC4)nn3)cc12 [[6-(3-amino(1H-indazol-5-yl))pyridazin-3-yl]{[(2-fluorophenyl)cyclopentyl]meth-yl}amine]	A (A=<1 uM)	
Nc1n[nH]c2ccc(-c3ccc(NCC4(c5ccccc5F)CC4)nn3)cc12 [[6-(3-amino(1H-indazol-5-yl))pyridazin-3-yl]{[(2-fluorophenyl)cyclopropyl]meth-yl}amine]	A (A=<1 uM)	
Nc1n[nH]c2ccc(-c3ccc(NCC4(c5ncccc5F)CCC4)nn3)cc12 [[6-(3-amino(1H-indazol-5-yl))pyridazin-3-yl]{[(3-fluoro(2-pyridyl))cyclobutyl]methyl}amine]	A (A=<1 uM)	
Nc1n[nH]c2ccc(-c3ccc(NCC4(c5ccc(F)cc5)CCC4)nn3)cc12 [[6-(3-amino(1H-indazol-5-yl))pyridazin-3-yl]{[(4-fluorophenyl)cyclobutyl]meth-yl}amine]	A (A=<1 uM)	
Nc1n[nH]c2ccc(-c3ccc(NCC4(c5ccc(F)cc5)CCCCC4)nn3)cc12 [[6-(3-amino(1H-indazol-5-yl))pyridazin-3-yl]{[(4-fluorophenyl)cyclohexyl]meth-yl}amine]	A (A=<1 uM)	
Nc1n[nH]c2ccc(-c3ccc(NCC4(c5ccc(F)cc5)CCCC4)nn3)cc12 [[6-(3-amino(1H-indazol-5-yl))pyridazin-3-yl]{[(4-fluorophenyl)cyclopentyl]meth-yl}amine]	A (A=<1 uM)	
Nc1n[nH]c2ccc(-c3ccc(NCC4(c5ccc(F)cc5)CC4)nn3)cc12 [[6-(3-amino(1H-indazol-5-yl))pyridazin-3-yl]{[(4-fluorophenyl)cyclopropyl]meth-yl}amine]	A (A=<1 uM)	
Nc1n[nH]c2ccc(-c3ccc(NCC4(c5ccc(F)cn5)CCC4)nn3)cc12 [[6-(3-amino(1H-indazol-5-yl))pyridazin-3-yl]{[(5-fluoro(2-pyridyl))cyclobutyl]methyl}amine]	A (A=<1 uM)	
CC(C)(CNc1ccc(-c2ccc3c(N)n[nH]c3c2)nn1)c1ncccc1F [[6-(3-amino(1H-indazol-6-yl))pyridazin-3-yl][2-(3-fluoro(2-pyridyl))-2-methylpropyl]amine]	B (B=1-10 uM)	
CC(C)(CNc1ccc(-c2ccc3c(N)n[nH]c3c2)nn1)c1ccc(F)cc1 [[6-(3-amino(1H-indazol-6-yl))pyridazin-3-yl][2-(4-fluorophenyl)-2-methylpropyl]amine]	A (A=<1 uM)	
CC(C)(CNc1ccc(-c2ccc3c(N)n[nH]c3c2)nn1)c1ccc(F)cn1 [[6-(3-amino(1H-indazol-6-yl))pyridazin-3-yl][2-(5-fluoro(2-pyridyl))-2-methylpropyl]amine]	C (C=10-20 uM)	
CC(C)(CNc1ccc(-c2cccc3c(N)n[nH]c23)nn1)c1ccc(F)cc1 [[6-(3-amino(1H-indazol-7-yl))pyridazin-3-yl][2-(4-fluorophenyl)-2-methylpropyl]amine]	B (B=1-10 uM)	
Cn1nc(N)c2cc(-c3ccc(NCC(C)(C)c4ccc(F)cc4)nn3)ccc21 [[6-(3-amino-1-methyl(1H-indazol-5-yl))pyridazin-3-yl][2-(4-fluorophenyl)-2-methylpropyl]amine]	B (B=1-10 uM)	
CC(C)(CNc1ccc(-c2ccc3onc(N)c3c2)nn1)c1ccc(F)cc1 [[6-(3-aminobenzo[3,4-d]isoxazol-5-yl)pyridazin-3-yl][2-(4-fluorophenyl)-2-methylpropyl]amine]	B (B=1-10 uM)	
CC(C)(CNc1ccc(-c2ccc3c(N)noc3c2)nn1)c1ccc(F)cc1 [[6-(3-aminobenzo[d]isoxazol-6-yl)pyridazin-3-yl][2-(4-fluorophenyl)-2-methylpropyl]amine]	A (A=<1 uM)	
CC(C)(CNc1ccc(-c2cccc(N)c2)nn1)c1ccc(F)cc1 [[6-(3-aminophenyl)pyridazin-3-yl][2-(4-fluorophenyl)-2-methylpropyl]amine]	A (A=<1 uM)	
